These results are taken from ChEMBL document CHEMBL1649106, “Structures of 1-Deoxy-D-Xylulose-5-Phosphate Reductoisomerase/Lipophilic Phosphonate Complexes” (ACS Med Chem Lett, 2011).

One may read the IC50 as the concentration that inhibits the measured activity by half. A high value points to weaker potency. Usually EC50 stands for the concentration that produces a half-maximal response. A low value points to higher potency in that assay. By half-life is commonly meant the time in which the quantity being followed falls by half. High values mean slow loss, low ones fast loss.

The target of data set [1] is T1, 1-deoxy-D-xylulose 5-phosphate reductoisomerase (Escherichia coli K-12, UniProt P45568).
T1 sequence (P45568 whole entry): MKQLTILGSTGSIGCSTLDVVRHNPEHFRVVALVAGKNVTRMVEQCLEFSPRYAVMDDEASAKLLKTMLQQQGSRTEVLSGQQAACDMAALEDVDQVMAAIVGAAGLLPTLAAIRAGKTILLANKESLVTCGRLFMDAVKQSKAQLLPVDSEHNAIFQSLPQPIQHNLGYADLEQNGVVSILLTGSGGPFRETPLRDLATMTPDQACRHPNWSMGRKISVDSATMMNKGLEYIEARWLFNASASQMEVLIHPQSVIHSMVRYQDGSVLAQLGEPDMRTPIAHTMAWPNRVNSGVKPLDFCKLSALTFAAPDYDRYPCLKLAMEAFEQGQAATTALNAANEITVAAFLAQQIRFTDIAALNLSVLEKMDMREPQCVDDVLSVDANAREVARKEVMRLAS
Briefly: Inhibition of Escherichia coli DXR.

Another data set concerns Plasmodium falciparum. In words: Antimalarial activity against Plasmodium falciparum. The class given is functional, organism-based.
Data set [2] can be described thus: Half life in plasma. Format: ADME, cell-free.

For `O=CN(O)CCCc1ccc(Cl)c(Cl)c1`, the IC50 in data set [1] is above 100000 nM.
Compound `CC(=O)N(O)CC[C@H](c1ccccc1)P(=O)(O)O` came in with an EC50 in the data set with Plasmodium falciparum of 250 nM.
Compound `O=CN(O)CCCP(=O)(O)O` [FOSMIDOMYCIN] had a half-life in data set [2] of 1 h. This compound also had an EC50 with Plasmodium falciparum of 1100 nM.
On to `O=P(O)(O)Cc1cccnc1`, for which the IC50 in data set [1] came out at 10000 nM.
Still for that read-out and setting: then `O=P(O)(O)Cc1ccc(Cl)c(Cl)c1`, with above 100000 nM.
Compound `CC(=O)N(O)CC[C@H](c1ccc(C)cc1)P(=O)(O)O` showed an EC50 with Plasmodium falciparum of 250 nM. This compound had an IC50 in data set [1] of 396 nM.
In the case of `O=c1ccc(-c2ccccc2)cn1O` [1-HYDROXY-5-PHENYLPYRIDIN-2(1H)-ONE], the concentration for half-maximal inhibition (IC50) in data set [1] is 1400 nM.
In the data set with Plasmodium falciparum, `CC(=O)N(O)CC[C@H](c1ccc(Cl)cc1)P(=O)(O)O` showed an EC50 of 250 nM. In addition, in data set [1], the IC50 turned out to be 99 nM.
For `O=P(O)(O)Cc1ccncc1`, in data set [1], inhibition was half-maximal at 7100 nM (IC50).
For the compound `COc1ccc([C@@H](CCN(O)C(C)=O)P(=O)(O)O)cc1`, in the data set with Plasmodium falciparum, the EC50 amounted to 250 nM. The same compound had an IC50 in data set [1] of 459 nM.
In the data set on Plasmodium falciparum, `CC(=O)N(O)CC[C@H](c1ccc(Cl)c(Cl)c1)P(=O)(O)O` came in with a concentration giving a half-maximal response (EC50) of 250 nM. In addition, the IC50 in data set [1] is 119 nM.
In data set [1], `O=CN(O)CCCc1ccncc1` yielded an IC50 above 100000 nM.
